In the assay the test system is 8226-2A1 cells. In words: MTT in vitro cytotoxicity assay of BCMA antibody conjugates, 8226-2A1. The format is cell-based. As to conditions: 15000 cells, 96 h incubation. As to the method:
The cell lines used in the cytotoxicity assays were (1). […] To run the assay, the cells (180 μl, 6000 cells) were added to each well in a 96-well plate and incubated for 24 hours at 37° C. with 5% CO2. Next, the cells were treated with test compounds (20 μl) at various concentrations in appropriate cell culture medium (total volume, 0.2 mL). The control wells contain cells and the medium but lack the test compounds. […] MTT (5 mg/mL) was then added to the wells (20 μl) and the plates were incubated for 1.5 hr at 37° C. The medium was carefully removed and DMSO (180 μl) was added afterward. After it was shaken for 15 min, the absorbance was measured at 490 nm and 570 nm with a reference filter of 620 nm. The inhibition % was calculated according to the following equation: inhibition %=[1−(assay-blank)/(control-blank)]×100.

The values below come from patent US20260158156A1, “SPECIFIC CONJUGATION OF AN ANTIBODY” (priority 2021, published 2026).

Each structure is given as a SMILES string.

A word on the IC50: it is the concentration at which inhibition is half-maximal. Low readings indicate greater potency in that assay, high ones weaker potency in that assay. `CC(=O)O[C@H]1C(=O)[C@@]2(C)[C@H]([C@H](OC(=O)c3ccccc3)[C@]3(O)C[C@H](OC(=O)[C@H](O)[C@@H](NC(=O)c4ccccc4)c4ccccc4)C(C)=C1C3(C)C)[C@]1(OC(C)=O)CO[C@@H]1C[C@@H]2O` [Paclitaxel] had an IC50 of 3.71 nM.
